Values of other authors as cited in article PMC2788793 (Molecular immunology, 2008).

Biological target: mouse H2-Kb molecule (Mus musculus, UniProt P01901)
Settings: ref Apostolopoulos et al., 2003

Sequence of mouse H2-Kb molecule (P01901 whole entry, looked up): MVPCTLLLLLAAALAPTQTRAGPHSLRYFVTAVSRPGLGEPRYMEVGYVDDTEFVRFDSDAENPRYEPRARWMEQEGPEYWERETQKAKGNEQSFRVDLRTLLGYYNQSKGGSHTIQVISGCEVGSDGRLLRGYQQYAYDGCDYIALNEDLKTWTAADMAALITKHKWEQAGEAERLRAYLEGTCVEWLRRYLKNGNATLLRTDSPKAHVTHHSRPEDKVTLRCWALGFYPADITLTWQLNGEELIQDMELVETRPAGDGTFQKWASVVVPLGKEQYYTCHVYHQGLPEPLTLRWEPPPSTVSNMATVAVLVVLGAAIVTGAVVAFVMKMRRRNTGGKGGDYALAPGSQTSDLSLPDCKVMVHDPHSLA

Binding to mouse H2-Kb molecule: completely abolished its binding
Substance: SAPDT(GalNAc-Gal)RPA
